pKi: −log10 of the molar value. Counter-ions that a name gives are not always drawn.
Key:
activated ROCK-II = molecular target: T1, activated ROCK-II (Rattus norvegicus, UniProt Q62868); assay: Test for Evaluation of Rho Kinase Inhibitory Activity; type: biochemical; conditions: Ki=IC50/(1+S/Km); [γ-32P]ATP, S6 kinase substrate peptide, 30° C. for 15 minutes
T1 construct: purchased Upstate Biotechnology 14-338
Method: In order to find the usefulness of the present invention compound, a Rho kinase inhibitory activity of the present invention compound was evaluated and studied. The details of the evaluation and study will be illustrated in the “section of Pharmacological Test (Test for Evaluation of Rho Kinase Inhibitory Activity)” in the Examples which will be mentioned later. The evaluation and study of the Rho kinase inhibitory activity of the present invention compound were carried out in accordance with the method described in J. Biol. Chem., 274, 32418 (1999) and the method described in the instruction manual for use attached to the commercially available activated ROCK-II [Upstate Biotechnology, Catalog No. 14-338 (5 units/50 μl)].
In order to study the usefulness of the present invention compound as a Rho kinase inhibitor, in accordance with the method described in J. Biol. Chem., 274, 32418 (1999) and the method described in the instruction manual for use attached to the commercially available activated ROCK-II [Upstate Biotechnology, Catalog No. 14-338 (5 units/50 μl)], the Rho kinase inhibitory activity of the present invention compound was evaluated and studied. As a test compound, Example compound 2 was used. […]
7) The filter paper is dipped in ethanol and then dried. Thereafter, the amount of phosphorylated substrate is measured using a liquid scintillation counter. […]

cynomolgus monkeys = assay: Test for Measurement of Intraocular Pressure-Reducing Activity; type: in vivo; conditions: male cynomolgus monkeys, 0.1% test compound solution instilled into one eye, measured at 2, 4 and 6 hours after instillation, versus vehicle control
Source text: Further, in order to verify the application of the present invention compound to a specific disease associated with Rho kinase, the intraocular pressure-reducing activity of the present invention compound was also studied. The details of the study will be illustrated in the “section of Pharmacological Test (Test for Measurement of Intraocular Pressure-Reducing Activity)” in the Examples which will be mentioned later.
In order to study the usefulness of the present invention compound as a therapeutic agent for glaucoma, an intraocular pressure-reducing effect in the case where the present invention compound was administered to cynomolgus monkeys (sex: male; one group consisting of 4 to 5 monkeys) was evaluated and studied. As a test compound, Example compound 2 (hereinafter referred to as the test compound) was used. […]
2) The intraocular pressure was measured immediately before administration of the test compound solution, which was defined as the initial intraocular pressure. […]
4) At 2, 4 and 6 hours after instillation of the test compound solution, one drop of a 0.4% oxybuprocaine hydrochloride eye drop was instilled into both eyes to achieve local anesthesia and then the intraocular pressure was measured. Measurement of the intraocular pressure for each time was carried out three times and a mean value thereof was calculated. […]

T1 sequence (Q62868 11-552 limits assumed): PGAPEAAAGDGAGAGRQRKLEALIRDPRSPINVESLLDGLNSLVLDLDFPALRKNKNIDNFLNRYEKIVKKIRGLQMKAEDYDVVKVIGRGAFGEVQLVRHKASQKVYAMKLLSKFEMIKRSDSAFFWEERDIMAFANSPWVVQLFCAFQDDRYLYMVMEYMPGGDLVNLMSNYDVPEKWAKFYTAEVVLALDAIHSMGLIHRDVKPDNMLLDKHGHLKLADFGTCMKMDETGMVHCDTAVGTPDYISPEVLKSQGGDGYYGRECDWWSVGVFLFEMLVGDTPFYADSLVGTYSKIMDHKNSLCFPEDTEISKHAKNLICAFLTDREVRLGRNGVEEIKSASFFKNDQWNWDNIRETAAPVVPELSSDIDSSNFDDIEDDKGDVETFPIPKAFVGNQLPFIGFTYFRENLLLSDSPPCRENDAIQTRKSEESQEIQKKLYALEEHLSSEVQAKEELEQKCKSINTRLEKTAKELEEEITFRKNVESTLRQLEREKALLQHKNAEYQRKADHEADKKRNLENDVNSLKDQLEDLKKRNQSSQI

melting point	pKi (activated ROCK-II)	Compound	intraocular pressure-reducing activity (change from the initial intraocular pressure, FIG. 1) (cynomolgus monkeys)
> 300 °C (dec.)	–	NC1(c2ccc(-c3ccc4[nH]ncc4c3C3CC3)nc2)CC2(CC2)C1 (as salt: hydrochloride) [Example compound 2, 5-{5-(5-amino-spiro[2,3]hex-5-yl)pyridin-2-yl}}-4-cyclopropyl-1H-indazole Dihydrochloride]	–
199 to 202 °C	–	CC(C)(C)OC(=O)NC1(c2ccc(-c3ccc4c(cnn4C4CCCCO4)c3C3CC3)nc2)CC2(CC2)C1 (stereo not shown) [Example compound 1]	–
–	8.46	NC1(c2ccc(-c3ccc4[nH]ncc4c3C3CC3)nc2)CC2(CC2)C1 [Example compound 2, 5-{5-(5-amino-spiro[2,3]hex-5-yl)pyridin-2-yl}}-4-cyclopropyl-1H-indazole Dihydrochloride]	excellent intraocular pressure-reducing activity

Reference: patent US8227480B2, “Indazole derivative having spiro ring structure in side chain” (Ube Industries, Ltd., priority 2006, dated 2012)
